The values that follow come from paper PMC7734235 (Computational and Structural Biotechnology Journal, 2020).

The assay addresses T1, Rab5 (Homo sapiens, UniProt P20339).
T1 sequence (P20339 1-215): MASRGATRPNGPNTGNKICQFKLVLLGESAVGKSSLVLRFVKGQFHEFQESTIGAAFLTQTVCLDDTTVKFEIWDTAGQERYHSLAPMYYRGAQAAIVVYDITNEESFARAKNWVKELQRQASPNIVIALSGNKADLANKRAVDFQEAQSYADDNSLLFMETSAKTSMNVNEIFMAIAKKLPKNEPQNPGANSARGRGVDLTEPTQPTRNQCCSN
The experiment in a line: intrinsic fluorescence titration. It counts as binding.

What is called Kd is the constant that tells how readily two partners part at equilibrium. A lower Kd goes with tighter binding.

SMILES strings stand for the structures.

Turning to `C=C1CC[C@@H]2[C@](C)(CO[C@@H]3O[C@H](CO)[C@@H](O)[C@H](O)[C@H]3O)CCC[C@@]2(C)[C@@H]1CCC1=CCOC1=O` [NAP, Neoandrographolide], the Kd was determined as 350 ± 30 nM.
